11 compounds from US20260176260A1, “DUAL RAF AND TUBULIN INHIBITORS AND METHODS OF USE THEREOF” (Deciphera Pharmaceuticals, LLC, priority 2023, published 2026) can be followed below.

Read-outs that look alike come from different tables or passages of the source. Bounds are passed on as bounds.

Assay [1] has as its system HPAF-II cells. Kind of assay: HPAF-II cell proliferation assay (resazurin). Type of assay: cell-based. In a few lines:
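Serial compound dilutions in triplicate with 750 cells/well in complete MEM with 10% FBS, 115 to 120 h at 37° C, 5% CO2. Resazurin then added for 18 to 24 h; fluorescence at ex 540/em 600 nm used to derive IC50.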

The test system of assay [2] is HCT-116 cells. Kind of assay: HCT-116 cell proliferation assay (resazurin). Type of assay: cell-based. In a few lines:
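HCT-116 cells, 375 per well in McCoy's 5A with 10% FBS, exposed to serially diluted compound in triplicate for 67-72 h at 37 °C. Resazurin added for 4-5 h more; fluorescence (ex 540/em 600 nm) fitted to IC50.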

The subject of assay [3] is MiaPaca-2 cells. Kind of assay: MiaPaca-2 cell proliferation assay (resazurin). Type of assay: cell-based.
Assay [4] concerns the target T1, Porcine Brain Tubulin (Sus scrofa, UniProt P02550+P02554).
T1 construct: Porcine Brain Tubulin (T240); purchased Cytoskeleton, Inc T240; BK011P; host or cells: porcine brain
Kind of assay: Biochemical tubulin polymerization assay.

Assay [5] concerns tubulin polymerization in HCT-116 cells. The assay can be described thus: Cellular tubulin polymerization assay (pellet/supernatant a-tubulin, HCT-116 cells). Type of assay: cell-based. How it is done: HCT-116 cells (catalog #CCL-247) are obtained from the American Type Culture Collect (ATCC, Manassas, VA). Briefly, cells are grown in McCoy's 5A supplemented with 10% characterized fetal bovine serum (Invitrogen, Carlsbad, CA) and 1% Penicillin/Streptomycin/L-Glutamine at 37° C., 5% CO2, and 95% humidity. Cells are expanded until reaching 70-95% confluency at which point they are sub-cultured or harvested for assay use. 450000 cells are added per well in 1500 μL complete growth medium in a tissue culture treated, 12-well plate. Plates are incubated for 18 to 24 h at 37° C., 5% CO2, and 95% humidity. At the end of the incubation, 2000 μL of base culture media is added to each well, followed by a serial dilution of compound. Plates are incubated for an additional 1 h at 37° C., 5% CO2, and 95% humidity. Lysates are generated by the addition of 100 μL Lysis and Microtubule Stabilization Buffer 1 (LMS01, Cytoskeleton Inc, Denver, CO) supplemented with GTP (BST06, Cytoskeleton Inc), ATP (BSA04, Cytoskeleton Inc), and Protease Inhibitor Cocktail Stock (PIC02, Cytoskeleton Inc). Cells are scraped off wells using a rubber cell scraper and collected in a clean 96-well plate. Lysates are centrifuged at 1000×g, 37° C. for 10 min and supernatant fraction is placed into an additional 96-well plate. The remaining pellet fraction is reconstituted in 100 μL LMS01 buffer and sonicated for 10 min. Pellet and Supernatant fractions are probed for a-tubulin via western blot analysis on the Jess System or equivalent (Bio-techne, Minneapolis, MN). Data is analyzed using Prism software (Graphpad, San Diego, CA) to calculate IC50 values.

The target of assay [6] is T2, B-Raf kinase (Homo sapiens, UniProt P15056).
T2 construct: purchased Sigma
T2 sequence (P15056 416-766): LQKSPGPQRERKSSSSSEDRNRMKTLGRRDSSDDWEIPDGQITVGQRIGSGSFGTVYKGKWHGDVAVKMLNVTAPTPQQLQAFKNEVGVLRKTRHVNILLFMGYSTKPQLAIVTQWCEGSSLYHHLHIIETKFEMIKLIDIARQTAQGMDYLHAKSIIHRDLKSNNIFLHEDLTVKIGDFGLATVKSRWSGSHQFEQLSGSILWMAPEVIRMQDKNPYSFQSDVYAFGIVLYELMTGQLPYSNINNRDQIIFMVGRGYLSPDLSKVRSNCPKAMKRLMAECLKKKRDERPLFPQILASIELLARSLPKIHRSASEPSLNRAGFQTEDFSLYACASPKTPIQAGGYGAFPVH
Kind of assay: Biochemical assay for B-Raf (coupled pyruvate kinase/lactate dehydrogenase).

For assay [7], the target named is T3, C-Raf kinase (Homo sapiens, UniProt P04049, Y340D/Y341D).
T3 construct: C-Raf residues 306-end; Y340D, Y341D with N-; purchased Sigma
Kind of assay: Biochemical assay for C-Raf (coupled pyruvate kinase/lactate dehydrogenase).

Setting [8] is: Homo sapiens, Table 5, read-out: HPAF-II.
[9] abbreviates: Homo sapiens, Table 5, read-out: HCT-116.
[10] abbreviates: Homo sapiens, MIA PaCa-2, Table 5, read-out: MiaPaca-2.
The mark [11] stands for this setting: Table 5, read-out: Tubulin Biochem.
The mark [12] stands for this setting: Table 5, HCT-116 cells, read-out: Tubulin Cellular.
Where [13] appears, read: Homo sapiens, HPAF-II, Table 4, read-out: HPAF-II IC50.
Setting [14] is: Homo sapiens, HCT-116, Table 4, read-out: HCT-116 IC50.
The mark [15] stands for this setting: Table 4, read-out: Tubulin Biochem IC50.

T1 sequence (P02550 whole entry): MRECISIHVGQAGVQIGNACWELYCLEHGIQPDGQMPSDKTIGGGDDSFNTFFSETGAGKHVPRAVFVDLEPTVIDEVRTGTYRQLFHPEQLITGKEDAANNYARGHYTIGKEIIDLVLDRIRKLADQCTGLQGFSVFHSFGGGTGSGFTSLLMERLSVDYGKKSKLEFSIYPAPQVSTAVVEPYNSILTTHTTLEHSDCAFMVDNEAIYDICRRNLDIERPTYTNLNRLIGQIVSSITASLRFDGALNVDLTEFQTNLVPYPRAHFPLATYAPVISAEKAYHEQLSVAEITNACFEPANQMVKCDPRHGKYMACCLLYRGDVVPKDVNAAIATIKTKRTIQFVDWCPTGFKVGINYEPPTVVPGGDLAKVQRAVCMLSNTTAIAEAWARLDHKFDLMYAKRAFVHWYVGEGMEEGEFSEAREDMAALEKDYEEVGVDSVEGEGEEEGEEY
T1 sequence (P02554 whole entry): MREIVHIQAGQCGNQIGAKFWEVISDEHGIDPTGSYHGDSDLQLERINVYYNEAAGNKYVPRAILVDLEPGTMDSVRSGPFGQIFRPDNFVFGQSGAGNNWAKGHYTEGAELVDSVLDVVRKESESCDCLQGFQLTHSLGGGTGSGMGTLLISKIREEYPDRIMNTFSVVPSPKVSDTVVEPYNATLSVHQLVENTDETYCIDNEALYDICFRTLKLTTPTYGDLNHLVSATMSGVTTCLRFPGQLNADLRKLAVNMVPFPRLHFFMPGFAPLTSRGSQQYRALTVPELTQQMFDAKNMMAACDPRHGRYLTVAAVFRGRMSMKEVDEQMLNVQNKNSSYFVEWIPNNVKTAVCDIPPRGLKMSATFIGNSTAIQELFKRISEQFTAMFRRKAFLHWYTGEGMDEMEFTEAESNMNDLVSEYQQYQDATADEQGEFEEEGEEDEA

On to `CC(C)(C)c1nc(-c2cccc(NS(=O)(=O)c3c(F)cccc3F)c2F)c(-c2ccnc(N)n2)s1` [Dabrafenib, reference compound], for which the IC50 in assay [1] (setting [8]) was 1000 to 10000 nM; in assay [2] (setting [9]) it was 1000 to 10000 nM; in assay [3] (setting [10]) it was 1000 to 10000 nM; in assay [4] (setting [11]), greater than 100000 nM.
As for `Cc1ccc(NC(=O)N2CC[C@@H](CC(F)(F)F)C2)cc1-c1cc(N[C@H](C)CO)nc(N2CCOCC2)c1` [Exarafenib, reference compound], the IC50 in assay [1] (setting [8]) lay within 1000 to 10000 nM; in assay [2] (setting [9]), 500 to 1000 nM; in assay [3] (setting [10]) it was 1000 to 10000 nM; in assay [5] (setting [12]) it was 1000 to 10000 nM.
`Cc1ccc(NC(=O)c2ccnc(C(F)(F)F)c2)cc1-c1cc(OCCO)nc(N2CCOCC2)c1` [Naporafenib, reference compound]: the IC50 is 1000 to 10000 nM in assay [1] (setting [8]); less than 100 nM in assay [6] (Table 5, read-out: BRAF); less than 100 nM in assay [7] (Table 5, read-out: CRAF); 1000 to 10000 nM in assay [2] (setting [9]); 1000 to 10000 nM in assay [3] (setting [10]); greater than 100000 nM in assay [4] (setting [11]).
Take `C[C@@H](NC(=O)c1ncnc(N)c1Cl)c1ncc(C(=O)Nc2cc(C(F)(F)F)c(Cl)cn2)s1` [Tovorafenib, reference compound]: the IC50 was 1000 to 10000 nM in assay [1] (setting [8]); 1000 to 10000 nM in assay [2] (setting [9]); 1000 to 10000 nM in assay [3] (setting [10]); greater than 100000 nM in assay [4] (setting [11]); 1000 to 10000 nM in assay [5] (setting [12]).
As for `CCCS(=O)(=O)Nc1ccc(F)c(C(=O)c2c[nH]c3ncc(-c4ccc(Cl)cc4)cc23)c1F` [Vemurafenib, reference compound], the IC50 in assay [1] (setting [8]) is 1000 to 10000 nM; in assay [2] (setting [9]) it was 1000 to 10000 nM; in assay [3] (setting [10]), 1000 to 10000 nM; in assay [4] (setting [11]), greater than 100000 nM.
As for `CC(C)(C)c1[nH]cnc1/C=c1\[nH]c(=O)/c(=C/c2ccccc2)[nH]c1=O` [plinabulin, reference compound], in assay [5] (ratio of pellet to supernatant vs DMSO control, HCT-116 cells, read-out: IC50 of inhibition of tubulin polymerization, cellular tubulin assay (FIG. 2)), the IC50 was found to be 5 nM.
With `CNC(=O)c1cc(-c2cc(-c3cc(NC(=O)c4ccnc(C(C)(C)F)c4)ccc3C)ccn2)ccn1` [reference compound], the IC50 in assay [1] (setting [13]) is 1000 to 10000 nM; in assay [6] (Table 4, read-out: BRAF IC50), less than 100 nM; in assay [7] (Table 4, read-out: CRAF IC50), less than 100 nM; in assay [2] (setting [14]), 500 to 1000 nM; in assay [4] (setting [15]), greater than 100000 nM; in assay [5] (Table 4, HCT-116 cells, read-out: Tubulin Cellular IC50) it was 1000 to 10000 nM.
Consider `CNC(=O)c1cc(-c2cc(-c3cc(NC(=O)c4cnnc(C(F)(F)F)c4)ccc3C)ccn2)ccn1` [reference compound], for which the IC50 is 1000 to 10000 nM in assay [1] (setting [13]); less than 100 nM in assay [6] (Table 4, read-out: BRAF IC50); less than 100 nM in assay [7] (Table 4, read-out: CRAF IC50); 1000 to 10000 nM in assay [2] (setting [14]); 1000 to 10000 nM in assay [3] (Homo sapiens, MIA PaCa-2, Table 4, read-out: MiaPaca-2 IC50); greater than 100000 nM in assay [4] (setting [15]).
Consider `Cc1cc(-c2cc(NC(=O)c3ccnc(C(C)(C)F)c3)ccc2C)cc(-c2ccnc(C(N)=O)c2)n1` [reference compound], for which the IC50 is 1000 to 10000 nM in assay [1] (setting [13]); less than 100 nM in assay [6] (Table 4, read-out: BRAF IC50); less than 100 nM in assay [7] (Table 4, read-out: CRAF IC50); 1000 to 10000 nM in assay [2] (setting [14]); greater than 100000 nM in assay [4] (setting [15]).
Regarding `CNC(=O)c1cc(-c2cc(-c3cc(NC(=O)c4ccnc(C(C)(C)C#N)c4)c(F)cc3C)ccn2)ccn1` [reference compound], the IC50 in assay [1] (setting [13]) is 1000 to 10000 nM; in assay [7] (Table 4, read-out: CRAF IC50), less than 100 nM; in assay [2] (setting [14]), 500 to 1000 nM; in assay [4] (setting [15]), greater than 100000 nM.
Regarding Belvarafenib [reference compound], the IC50 was 1000 to 10000 nM in assay [1] (Table 5, read-out: HPAF-II); less than 100 nM in assay [6] (Table 5, read-out: BRAF); less than 100 nM in assay [7] (Table 5, read-out: CRAF); 500 to 1000 nM in assay [2] (Table 5, read-out: HCT-116); 1000 to 10000 nM in assay [3] (Table 5, read-out: MiaPaca-2); greater than 100000 nM in assay [4] (setting [11]). Also, the IC50 in assay [5] (setting [12]) fell in the range of 1000 to 10000 nM.
